Test results taken from patent publication US12059462B2, “Composition containing influenza vaccine” (priority 2018, dated 2024).

What was measured:
[1] = tested on: LAH binding monoclonal antibody (#2, #4 and #5); assay: Binding capacity of antibody to LAH epitope, order of formalin treatment; conditions: FIG. 15; H3N2 strain X31; formalin treatment after (Post-fix) or before (Pre-fix) the acidic treatment
[2] = tested on: synthetic peptide (H3) corresponding to a portion (long alpha helix) of the stem portion; conditions: mouse, in vivo, ip

membrane fusion-type H3N2 HA split vaccine: HA split vaccine of H3N2 influenza virus (strain X31) subjected to acidic treatment (pH 5.0), then formalin treatment
binding of the LAH binding monoclonal antibody to the vaccine [1]: more strongly than to the vaccine (Pre-fix)
titer of the anti-LAH antibody in the sera [2]: higher titer of the anti-LAH antibody than the membrane fusion-type split vaccine (Pre-fix)
